Experimental data taken from patent US6579720B1, “Method for activity profiling compound mixtures” (BDC Pharma LLC, priority 1999, dated 2003).

Legend:
[1] = IAM chromatography, normalized capacity factor on esterIAM.PS C10/C3; assay type: physicochemical; settings: 15% acetonitrile + 85% 0.03 M NH4OAc buffer pH 7.4, 1 mL/min
From the text: (§1) The preferred, if not only surfaces capable of measuring membrane binding constants so far are from a group of immobilized artificial membranes (IAMs). IAMs consist of a monolayer of phospholipids covalently immobilized to a silica surface. Five types of IAM surfaces are typically used: phosphatidylcholine (PC), phosphatidylethanolamine (PE), phosphatidylserine (PS), sphingomyelin (SM), and cholesterol (CL). These IAM silica surfaces are used as the stationary phase in high performance liquid chromatography (HPLC). The IAM columns can be run in parallel with one single MS detection system (multi-column LC/MS) or successively using a one-column LC/MS instrument.
(§2) Dimensions of the columns: 3.0×0.46 cm.
(§3) Wavelength of the UV detector: 220 nm.
(§4) Mobile phase composition: 15% of acetonitrile+85% of 0.03 M NH4OAc buffer (pH 7.4).
(§5) All five compounds were chromatographed on ^esterIAM.PC^C10/C3, ^esterIAM.PE^C10/C3, ^esterIAM.PS^C10/C3, IAM.SM^C10/C3 using the experimental conditions described above. A representative set of normalized capacity factor values (αk′) of these drugs are presented in Table 6 [It should be noted that these values are very much dependent on packing material quality and density, as well as mobile phase composition (particularly the pH). Thus these values are not absolute and may vary from column to column within the same column type].

[2] = IAM chromatography, normalized capacity factor on esterIAM.PE C10/C3; assay type: physicochemical; settings: 15% acetonitrile + 85% 0.03 M NH4OAc buffer pH 7.4, 1 mL/min
From the text: as §1, §2, §3, §4, §5

[3] = IAM chromatography, normalized capacity factor on IAM.SM C10/C3; assay type: physicochemical; settings: 15% acetonitrile + 85% 0.03 M NH4OAc buffer pH 7.4, 1 mL/min
From the text: as §1, §2, §3, §4, §5

[4] = IAM chromatography, normalized capacity factor on esterIAM.PC C10/C3; assay type: physicochemical; settings: 15% acetonitrile + 85% 0.03 M NH4OAc buffer pH 7.4, 1 mL/min
From the text: as §1, §2, §3, §4, §5

[5] = tested on: antibody of the Benzodiazepines ELISA (specific for compounds belonging to the Benzodiazepine family); assay: Benzodiazepine ELISA (Neogen competitive ELISA test kit); assay type: binding; settings: experiment C, 7-drug mixture; ELISA fingerprint compared with chromatographic fingerprints
From the text: (§6) ELISA test kits were purchased from Neogen Corporation, Lexington, Ky. […] Structural features that typically produce a positive response for each of these assays are described on FIG. 11.
(§7) ELISA is a method of analysis that relies on specific interactions between antibodies and antigens to detect a variety of substances. The assay (Neogen) operates on the basis of competition between the horseradish peroxidase (HRP) enzyme conjugate and the analyte in the sample for specific binding sites on the precoated antibody microplate. The test kits used for the experiment are 96-well plates precoated with a specific antibody. As described in FIG. 12, the sample or standard solution is first added to the precoated antibody microplate. Next, the diluted enzyme conjugate is added and the mixture is shaken and then incubated at room temperature for one hour. During incubation, competition for binding sites on the microplate is taking place. The plate is then washed removing all unbound material. The bound enzyme conjugate is detected by the addition of a tetramethylbenzidine (TMB) based substrate which generates an optimal color after 30 minutes. […] The extent of color development is inversely proportional to the amount of analyte in the sample or standard. […] Typically, the sensitivity of the selected ELISA assays ranges from ˜0.1 to 20-30 ng/mL depending on the substrate. […]

[6] = tested on: antibody of the Haloperidol ELISA (specific for Haloperidol); assay: Haloperidol ELISA (Neogen competitive ELISA test kit); assay type: binding
From the text: as §6, §7

tricyclic antibody = assay: Tricyclic ELISA (Neogen competitive ELISA test kit); assay type: binding; settings: experiment C, 7-drug mixture; ELISA fingerprint compared with chromatographic fingerprints
From the text: as §6, §7

Row | Molecule | IAM.PS (αk′) [1] | IAM.PE (αk′) [2] | IAM.SM (αk′) [3] | IAM.PC (αk′) [4] | Benzodiazepine ELISA activity assigned to compound [5] | Haloperidol ELISA activity assigned to compound ([6]; experiment B, 70-drug mixture, activity profile compared with chromatographic fingerprints) | Haloperidol ELISA activity assigned to compound ([6]; experiment C, 7-drug mixture, ELISA fingerprint compared with chromatographic fingerprints) | Tricyclic ELISA activity assigned to compound (tricyclic antibody)
1 | Cc1cn([C@H]2C[C@H](N=[N+]=[N-])[C@@H](CO)O2)c(=O)[nH]c1=O [AZT] | 0.36 | 0.76 | 0.26 | 0.36 | – | – | – | –
2 | CN1C(=O)CN=C(c2ccccc2)c2cc(Cl)ccc21 [Diazepam] | – | – | – | – | detected by the Benzodiazepine ELISA assay | – | – | –
3 | O=C(CCCN1CCC(O)(c2ccc(Cl)cc2)CC1)c1ccc(F)cc1 [Haloperidol] | – | – | – | – | – | activity should be assigned to Haloperidol | only matches the chromatographic fingerprint of Haloperidol | –
4 | COc1cc(CCN)cc(OC)c1OC [Mescaline] | 11.39 | 1.95 | 0.49 | 0.62 | – | – | – | –
5 | CCN(CC)C(=O)c1cccnc1 [Nikethamide] | 0.61 | 1.55 | 0.30 | 0.33 | – | – | – | –
6 | CCn1cc(C(=O)O)c(=O)c2cc(F)c(N3CCNCC3)cc21 [Norfloxacin] | 8.09 | 1.31 | 2.09 | 0.64 | – | – | – | –
7 | CN1CCCN=C1COC(=O)C(O)(c1ccccc1)C1CCCCC1 (stereo not drawn) [Oxyphencyclimine] | – | – | – | – | – | – | – | detected
8 | Olazoline | 4.72 | 1.19 | 0.49 | 0.52 | – | – | – | –
